One experiment has as its target T1, human ENT1 (Homo sapiens, UniProt Q99808).
T1 construct: JAR cells expressing ENT1 were purchased from ATCC; host or cells: JAR cells
T1 sequence (Q99808 1-456): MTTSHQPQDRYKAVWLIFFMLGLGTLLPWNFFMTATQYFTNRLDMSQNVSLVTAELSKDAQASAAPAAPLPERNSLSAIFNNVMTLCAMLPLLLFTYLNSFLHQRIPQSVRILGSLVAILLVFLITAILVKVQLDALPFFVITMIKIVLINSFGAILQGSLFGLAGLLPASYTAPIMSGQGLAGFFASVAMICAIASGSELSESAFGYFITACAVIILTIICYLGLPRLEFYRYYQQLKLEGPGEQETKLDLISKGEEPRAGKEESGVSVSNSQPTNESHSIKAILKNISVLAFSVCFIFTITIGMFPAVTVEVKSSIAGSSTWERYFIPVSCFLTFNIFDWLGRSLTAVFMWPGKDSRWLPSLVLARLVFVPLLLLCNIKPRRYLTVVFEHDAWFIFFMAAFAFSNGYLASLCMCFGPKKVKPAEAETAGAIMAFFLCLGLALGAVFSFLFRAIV
Kind of experiment: ENT1 binding assay (competition with Sahenta-DY647 on JAR cells). To be noted: competition with SAHENTA-DY647 binding; IC50 categorized; read-out: Binding Assay IC50. In a few lines: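 Whole-cell competition on JAR cells (native ENT1): 50,000 cells pre-incubated 30 min at 4 °C with compound in HBSS/10 mM Hepes/0.1% BSA, then 100 nM Sahenta-DY647 added for 30 min at 4 °C. After washing, fluorescence (Ex 630/Em 670 nm) read; IC50 from sigmoidal fit, averaged as pIC50.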

Experiment [1] deals with stimulated primary human T cells. Kind of experiment: T cell proliferation assay, Condition A (X-VIVO15). The format is cell-based. The conditions noted are these: Homo sapiens, T-cell, 96 h; Condition A: X-VIVO15 medium; anti-CD3/anti-CD28 beads, ATP, 4 days; CFSE-lo T cells. On the procedure:
(§1) The goal of this study was to determine the potency of ENT1 inhibitors by measuring the rescued proliferation of stimulated primary human T cells incubated in the presence of 100 uM Adenosine triphosphate (ATP), in baseline conditions (condition A) or in the presence of various proteins known to bind small molecules (condition B).
(§2) Venous blood from healthy volunteers, all of whom signed an informed consent approved by the Ethics Committee (FOR—UIC—BV-050-01-01 ICF_HBS_HD Version 5.0), was obtained by ImmuneHealth (Centre Hospitalier Universitaire Tivoli, La Louviere, Belgium). Mononuclear cells were collected by density gradient centrifugation, using SepMate-50 tubes (StemCell Technologies, Grenoble, France) and Lymphoprep (Stemcell Technologies) according to the manufacturer's instructions. CD3+ T cells were isolated by immunomagnetic negative selection, using the EasySep Human T Cell Isolation Kit (StemCell Technologies) as per the manufacturer's instructions. CD3+ T cells were stored in heat inactivated FBS (hiFBS; Gibco, ThermoFisher Scientific, Merelbeke, Belgium) and 10% DMSO in liquid nitrogen.
(§3) Purified human CD3+ T cells were thawed and washed once with RPMI1640 medium, UltraGlutamine (Lonza, Verviers, Belgium) containing 10% hiFBS. Cells were resuspended in PBS containing 10% hiFBS at 1×10^7 cells/ml. One volume of cells was combined with a matching volume of 2 μM CFSE solution in PBS, mixed well by pipetting, and incubated at room temperature for 5 minutes under rotation and protected from light. Excess CFSE was quenched by addition of PBS containing 10% hiFBS, and the cells were centrifuged (300×rcf, 7 minutes) and resuspended in X-VIVO15. Cells were again centrifuged and resuspended in X-VIVO15 for counting.
(§4) Cells were resuspended at 1.6×10^6 cells/mL in X-VIVO15 medium (Condition A) or X-VIVO15 medium containing 4% (v/v) HSA (Sigma-Aldrich, Diegem, Belgium) and 0.2% (v/v) ai-Acid Glycoprotein (Sigma-Aldrich, Diegem, Belgium) (Condition B).
(§5) […] of cell suspension (2×10^4 cells) was added to wells of sterile flat-bottom 384-well plates. Cells were activated by adding […] of anti-CD3 anti-CD28 coated microbeads (Dynabeads human T-activator CD3/CD28; Life Technologies, Paisley, UK) suspended in X-VIVO15 medium or X-VIVO15 medium containing 4% (v/v) HSA and 0.2% (v/v) ai-Acid Glycoprotein at a ratio of one microbead per two cells. Serial dilutions of the ENT1 inhibitors were conducted in X-VIVO15 medium and […] of the diluent was added to the wells. Cells were mixed by pipetting up and down and pre-incubated for 30 minutes in a 37° C. humidified tissue culture incubator with 5% CO2. After pre-incubation, cells were cultured in the presence or absence of ATP (Sigma-Aldrich) at a final concentration of […]. The final well volume was 50 μl in all cases. Experiments were performed in biological duplicates. Cells were mixed by pipetting up and down and incubated for 4 days in a 37° C. humidified tissue culture incubator with 5% CO2.
(§6) Samples were run on a BD LSR Fortessa FACS machine (BD FACSDiva Software v9.0.1). Data were analyzed using FlowJo (BD, v10.7.1). T cell proliferation was determined by measuring the frequency of ‘CFSE^lo’ (i.e. CFSE-diluted).
(§7) T cell proliferation data were analyzed using FlowJo software (Version 10.6.2). Dead cells and cellular debris were excluded on the basis of forward and side scatter profile and singlet cells were selected for further analysis.
(§8) T cell proliferation was determined based on the percent CFSE^lo total T cells for each condition. The data were plotted on the y-axis against log molar (M) concentration of ENT1 inhibitors on the x-axis in GraphPad Prism (version 9.0.0). IC50 and IC90 values were generated with the ‘log(agonist) vs. response—Find ECanything(F))’ function with F constrained to 50 or 90, respectively. pICF values were generated by taking the −logECF values.

Experiment [2] has the same test system. Kind of experiment: T cell proliferation assay, Condition B (X-VIVO15, 2% HSA and 0.1% AAG). In kind it is cell-based. The conditions noted are these: Homo sapiens, T-cell, 96 h; Condition B: X-VIVO15 medium containing HSA and α1-Acid Glycoprotein; anti-CD3/anti-CD28 beads, ATP, 4 days; CFSE-lo T cells. On the procedure:
as §1
Condition B: X-VIVO15, 2% Human Serum Albumin (HSA) and 0.1% α-1-Acid Glycoprotein (AAG)
as §2, §3, §4, §5, §6, §7, §8

A value given as a limit tells only on which side of the number the result lay.

Data on 24 molecules can be found in patent US20260184712A1, “Heterocyclic Compounds as ENT Inhibitors and Compounds for Use in the Treatment of Cancers” (iTeos Belgium SA, priority 2022, published 2026).

Consider `C[C@H]1O[C@@H](n2c(OCc3ccccc3)nc3c(OCc4ccc([N+](=O)[O-])cc4)ncnc32)[C@H](O)[C@@H]1O` [Compound 2], for which the IC50 on human ENT1 was 0.001 to 0.02 µM; in experiment [1], under 0.001 µM; in experiment [2], 0.02 to 0.5 µM.
For the molecule `C[C@H]1O[C@@H](n2c(NC3CCCC3)nc3c(OCc4ccccc4)ncnc32)[C@H](O)[C@@H]1O` [Compound 5], the results for the IC50 (at human ENT1; in experiment [1]; in experiment [2]) were 0.001 to 0.02 µM, 0.001 to 0.02 µM and 0.02 to 0.5 µM, respectively.
`C[C@H]1O[C@H](n2c(NCc3ccccc3)nc3c(OCc4ccc(OC(F)F)cc4)ncnc32)[C@H](O)[C@@H]1O` [Compound 8]: the IC50 on human ENT1 was 0.001 to 0.02 µM; in experiment [1], under 0.001 µM; in experiment [2], 0.02 to 0.5 µM.
In the same order, the values of `C[C@H]1O[C@@H](n2c(NC3CCC(F)(F)C3)nc3c(OCc4ccc([N+](=O)[O-])cc4)ncnc32)[C@H](O)[C@@H]1O` (stereo partly drawn) [Compound 9] are under 0.001 µM, under 0.001 µM and 0.001 to 0.02 µM.
In the same order, the values of `C[C@H]1O[C@@H](n2c(NC3CCC(F)(F)CC3)nc3c(OCc4ccc([N+](=O)[O-])cc4)ncnc32)[C@H](O)[C@@H]1O` [Compound 10] are 0.001 to 0.02 µM, under 0.001 µM and 0.001 to 0.02 µM.
The corresponding values for `C[C@H]1O[C@@H](n2c(NC3CCCC3)nc3c(OCc4ccc(OC(F)F)cc4)ncnc32)[C@H](O)[C@@H]1O` [Compound 11] are under 0.001 µM, under 0.001 µM and 0.001 to 0.02 µM.
`C[C@H]1O[C@@H](n2c(NC3CCCC3)nc3c(OCc4ccc(C#N)cc4)ncnc32)[C@H](O)[C@@H]1O` [Compound 12]: the IC50 is under 0.001 µM on human ENT1, under 0.001 µM in experiment [1] and 0.02 to 0.5 µM in experiment [2].
For `C[C@H]1O[C@@H](n2c(NC3CCCC3)nc3c(OCc4ccc(OC(F)F)nc4)ncnc32)[C@H](O)[C@@H]1O` [Compound 14], the IC50 at human ENT1 was under 0.001 µM; in experiment [1] it was under 0.001 µM; in experiment [2] it was 0.02 to 0.5 µM.
Take `C[C@H]1O[C@@H](n2c(Nc3cnn(C)c3)nc3c(OCc4ccc([N+](=O)[O-])cc4)ncnc32)[C@H](O)[C@@H]1O` [Compound 17]: the IC50 at human ENT1 fell in the range of 0.001 to 0.02 µM; in experiment [1] it was 0.001 to 0.02 µM; in experiment [2], 0.02 to 0.5 µM.
On to `C[C@H]1O[C@@H](n2c(NC3CCOC3)nc3c(OCc4ccc([N+](=O)[O-])cc4)ncnc32)[C@H](O)[C@@H]1O` (stereo partly drawn) [Compound 18], for which the figures for the concentration for half-maximal inhibition (IC50) (on human ENT1; in experiment [1]; in experiment [2]) were 0.001 to 0.02 µM, under 0.001 µM and 0.001 to 0.02 µM, respectively.
As for `CCNc1nc2c(OCc3ccc([N+](=O)[O-])cc3)ncnc2n1[C@@H]1O[C@H](C)[C@@H](O)[C@H]1O` [Compound 20], the figures for the IC50 (on human ENT1; in experiment [1]; in experiment [2]) were 0.001 to 0.02 µM, under 0.001 µM and 0.02 to 0.5 µM, respectively.
For the molecule `C[C@H]1O[C@@H](n2c(NCCO)nc3c(OCc4ccc([N+](=O)[O-])cc4)ncnc32)[C@H](O)[C@@H]1O` [Compound 21], the results for the IC50 (on human ENT1; in experiment [1]; in experiment [2]) were 0.001 to 0.02 µM, 0.001 to 0.02 µM and 0.02 to 0.5 µM, respectively.
For the molecule `C[C@H]1O[C@@H](n2c(NCCCO)nc3c(OCc4ccc([N+](=O)[O-])cc4)ncnc32)[C@H](O)[C@@H]1O` [Compound 22], the IC50 on human ENT1 was 0.001 to 0.02 µM; in experiment [1], 0.001 to 0.02 µM; in experiment [2], 0.02 to 0.5 µM.
For `COCCNc1nc2c(OCc3ccc([N+](=O)[O-])cc3)ncnc2n1[C@@H]1O[C@H](C)[C@@H](O)[C@H]1O` [Compound 23], the IC50 at human ENT1 is 0.001 to 0.02 µM; in experiment [1], under 0.001 µM; in experiment [2] it was 0.02 to 0.5 µM.
The corresponding values for `C[C@H]1O[C@@H](n2c(NCC(F)(F)F)nc3c(OCc4ccc([N+](=O)[O-])cc4)ncnc32)[C@H](O)[C@@H]1O` [Compound 24] are 0.001 to 0.02 µM, 0.001 to 0.02 µM and 0.02 to 0.5 µM.
Take `CC(C)Nc1nc2c(OCc3ccc([N+](=O)[O-])cc3)ncnc2n1[C@@H]1O[C@H](C)[C@@H](O)[C@H]1O` [Compound 25]: the IC50 on human ENT1 was under 0.001 µM; in experiment [1], under 0.001 µM; in experiment [2], 0.001 to 0.02 µM.
Consider `C[C@H]1O[C@@H](n2c(NC3CC3)nc3c(OCc4ccc([N+](=O)[O-])cc4)ncnc32)[C@H](O)[C@@H]1O` [Compound 26], for which the values for the IC50 (at human ENT1; in experiment [1]; in experiment [2]) were 0.001 to 0.02 µM, 0.001 to 0.02 µM and 0.02 to 0.5 µM, respectively.
Consider `C[C@H]1O[C@@H](n2c(NC3CCC(O)C3)nc3c(OCc4ccc([N+](=O)[O-])cc4)ncnc32)[C@H](O)[C@@H]1O` (stereo partly drawn) [Compound 29], for which the values for the 50% inhibitory concentration (IC50) (on human ENT1; in experiment [1]; in experiment [2]) were under 0.001 µM, under 0.001 µM and 0.001 to 0.02 µM, respectively.
As for `C[C@H]1O[C@@H](n2c(NC3CCOCC3)nc3c(OCc4ccc([N+](=O)[O-])cc4)ncnc32)[C@H](O)[C@@H]1O` [Compound 30], the IC50 at human ENT1 is under 0.001 µM; in experiment [1], under 0.001 µM; in experiment [2], 0.001 to 0.02 µM.
In the case of `C[C@H]1O[C@@H](n2c(NC3CCS(=O)(=O)CC3)nc3c(OCc4ccc([N+](=O)[O-])cc4)ncnc32)[C@H](O)[C@@H]1O` [Compound 31], the figures for the IC50 (at human ENT1; in experiment [1]; in experiment [2]) were under 0.001 µM, under 0.001 µM and 0.001 to 0.02 µM, respectively.
On to `C[C@H]1O[C@@H](n2c(NCCC3CCN(C)CC3)nc3c(OCc4ccc([N+](=O)[O-])cc4)ncnc32)[C@H](O)[C@@H]1O` [Compound 34], for which the IC50 on human ENT1 was in the range of 0.02 to 0.5 µM; in experiment [1] it was 0.001 to 0.02 µM; in experiment [2], 0.02 to 0.5 µM.
As for `CC(C)Nc1nc2c(OCc3ccc(C#N)cc3)ncnc2n1[C@@H]1O[C@H](C)[C@@H](O)[C@H]1O` [Compound 40], the 50% inhibitory concentration (IC50) at human ENT1 was 0.001 to 0.02 µM; in experiment [1], under 0.001 µM; in experiment [2], 0.02 to 0.5 µM.
The corresponding values for `C[C@H]1O[C@@H](n2c(NCCCO)nc3c(OCc4ccc(OC(F)F)cc4)ncnc32)[C@H](O)[C@@H]1O` [Compound 44] are 0.001 to 0.02 µM, 0.001 to 0.02 µM and 0.02 to 0.5 µM.
The corresponding values for `C[C@H]1O[C@@H](n2c(NC3CC(F)(F)C3)nc3c(OCc4ccc([N+](=O)[O-])cc4)ncnc32)[C@H](O)[C@@H]1O` [Compound 47] are 0.001 to 0.02 µM, under 0.001 µM and 0.02 to 0.5 µM.
